Earlier results on five compounds are cited in patent US20170020817A1, “SOLID NANOPARTICLE FORMULATION OF MICROTUBLE INHIBITORS WITH REDUCED OSTWALD REPENING FOR ORAL ADMINISTRATION” (Luminus Biosciences, Inc., priority 2013, published 2017).

One series relates to microtubules. The note with it: most test systems.

`C/C(=C\c1csc(C)n1)[C@@H]1C[C@@H]2O[C@]2(C)CCC[C@H](C)[C@H](O)[C@@H](C)C(=O)C(C)(C)[C@@H](O)CC(=O)N1` [Ixabepilone]: the solubility in water result is listed as “about 3.5 mg/L”. On to `CO[C@H]1C(=O)[C@]2(C)[C@@H](OC)C[C@H]3OC[C@@]3(OC(C)=O)[C@H]2[C@H](OC(=O)c2ccccc2)[C@]2(O)C[C@H](OC(=O)[C@H](O)[C@@H](NC(=O)OC(C)(C)C)c3ccccc3)C(C)=C1C2(C)C` [cabazitaxel], for which the solubility in water entry is “about 8 mg/L”. With `CC(=O)O[C@@]12CO[C@@H]1C[C@H](O)[C@@]1(C)C(=O)[C@H](O)C3=C(C)[C@@H](OC(=O)[C@H](O)[C@@H](NC(=O)OC(C)(C)C)c4ccccc4)C[C@@](O)([C@@H](OC(=O)c4ccccc4)[C@H]21)C3(C)C` [docetaxel], the solubility in water entry is given as “about 14 mg/L”. Turning to `C/C(=C\c1csc(C)n1)[C@@H]1C[C@@H]2O[C@]2(C)CCC[C@H](C)[C@H](O)[C@@H](C)C(=O)C(C)(C)[C@@H](O)CC(=O)O1` [epothilone B], the “effectiveness relative to epothilone A” value in the series on microtubules is “approximately ten-time more effective”.

Consider `CC(=O)O[C@H]1C(=O)[C@@]2(C)[C@H]([C@H](OC(=O)c3ccccc3)[C@]3(O)C[C@H](OC(=O)[C@H](O)[C@@H](NC(=O)c4ccccc4)c4ccccc4)C(C)=C1C3(C)C)[C@]1(OC(C)=O)CO[C@@H]1C[C@@H]2O` [paclitaxel], for which the solubility in water result was “about 0.4 mg/L”.
